Several values for one entry are separate records, joined by “and”; a condition that tells them apart may be missing. Equal entries are not always repeated. Where two headings read alike, the source gives them in different places.
How the values were obtained:
[1] = test system: rats with middle cerebral artery occlusion (MCAO); experiment: Forelimb placing test, MCAO rats, dose escalation study (Example 17); format: in vivo, Sprague Dawley rat; settings: for Forelimb placing compared to vehicle: p<0.001
From the text: The limb placing tests were divided into forelimb and hindlimb tests. For the forelimb-placing test, the examiner held the rat close to a tabletop and scored the rat's ability to place the forelimb on the tabletop in response to whisker, visual, tactile, or proprioceptive stimulation. Similarly, for the hindlimb placing test, the examiner assessed the rat's ability to place the hindlimb on the tabletop in response to tactile and proprioceptive stimulation. Together, these tests reflect function and recovery in the sensorimotor systems (De Ryck et al., Brain Res 1992; 573:44-60). Separate sub-scores were obtained for each mode of sensory input and added to give total scores (for the forelimb placing test: 0=normal, 12=maximally impaired; for the hindlimb placing test: 0=normal; 6=maximally impaired). Scores were given in half-point increments (see below). Typically, there is a slow and steady recovery of limb placing behavior during the first month after stroke.
Forelimb placing test (0-12): • whisker placing (0-2); • visual placing (forward (0-2), sideways (0-2)) • tactile placing (dorsal (0-2), lateral (0-2)) • proprioceptive placing (0-2).
For each subtest, animals are scored as followed: • 0.0=immediate response • 0.5=response within 2 seconds • 1.0=response of 2-3 seconds • 1.5=response of >3 seconds • 2.0=no response
4-AP was evaluated for its ability to promote functional sensorimotor improvement following ischemic stroke in rats with stable motor deficits at times remote from their ischemic events. The animal model of ischemic stroke, i.e., the MCAO model, used in this example is the same as the animal model described in Example 2.
In the MCAO model recovery begins to plateau by 4 weeks after MCAO, at which time there are still measurable deficits in sensorimotor function. However, 4 weeks after MCAO there may still be slow continued endogenous recovery.
4-aminopyridine was dissolved in water for injection (WFI, Cellgro) and sterile filtered. […]

[2] = test system: rats with middle cerebral artery occlusion (MCAO); experiment: Body swing test, MCAO rats, dose escalation study (Example 17); format: in vivo, Sprague Dawley rat; settings: groups diverged prior to treatment initiation (FIG. 13)
Description: Body Swing: Evaluated at Day −1 (pre-operation), Day 1, Day 7, Day 14, Day 21, Day 28, Day 30, Day 32, Day 42, Day 44, Day 46, Day 56, Day 58, Day 60. Body swing was evaluated by counting head movements to one side or the other when suspended by tail. For this test, the rat was held approximately one (1) inch from the base of its tail. It was then elevated to an inch above a surface of a table. The rat was held in the vertical axis, defined as no more than 10° to either the left or the right side. A swing was recorded whenever the rat moved its head out of the vertical axis to either side. Before attempting another swing, the rat had to return to the vertical position for the next swing to be counted. Thirty (30) total swings were counted. […] Body swing scores were expressed as a percentage of rightward over total swings. […]
4-AP was evaluated for its ability to promote functional sensorimotor improvement following ischemic stroke in rats with stable motor deficits at times remote from their ischemic events. […]
Body Swing: Evaluated at Day −1 (pre-operation), Day 1, Day 7, Day 14, Day 21, Day 28, Day 35, Day 42, Day 49, Day 56, Day 59, Day 62, Day 65, Day 70. […]
Statistical Methods: Changes from pre-treatment baseline values (Day 56) were calculated for each behavioral score at each time point assessed after dosing. […]

potassium channels = settings: cited from earlier work
[3] = Body weight (g) of MCAO rats (Example 2); settings: individual animals and Mean (N=15), listed as 4-AP

Nc1ccncc1 [4-aminopyridine]
Forelimb placing compared to vehicle ([1]; 0.5 mg/kg b.i.d. p.o., Day 59, treatment started Day 56 after MCAO): significantly improved in forelimb placing
Forelimb placing compared to vehicle ([1]; 1 mg/kg b.i.d. p.o., Day 62): measureable improvement
Forelimb function compared to vehicle ([1]; 2 mg/kg b.i.d. p.o., Day 65, p<0.0001): significant improvements
Body swing performance [2]: no conclusions can be drawn
potassium channel blocking activity (potassium channels; at high concentration (millimolar concentrations)): broad-spectrum blocker of potassium channels
potassium channel blocking activity (potassium channels; at plasma concentrations obtained in clinical studies (<1 microM)): selective for certain types of these channels
Weight (g) Group 1, D30 ([3]; Group 1, D30, treatment phase 1 (high-dose 4-AP)): 425 g (2×) and 450 g and 435 g and 490 g and 544 g and 470 g and 512 g and 434 g and 482 g and 480 g and 360 g and 422 g and 496 g and 372 g
Weight (g) Group 1, D32 ([3]; Group 1, D32, treatment phase 1 (high-dose 4-AP)): 411 g and 441 g and 417 g and 470 g and 515 g and 454 g and 496 g and 422 g and 453 g and 461 g and 351 g and 404 g and 412 g and 477 g and 360 g
Weight (g) Group 1, D44 ([3]; Group 1, D44, treatment phase 2 (low-dose 4-AP)): 455 g and 501 g and 447 g and 511 g and 566 g and 480 g and 545 g and 454 g and 502 g (2×) and 400 g and 440 g and 456 g and 494 g and 390 g
Weight (g) Group 1, D46 ([3]; Group 1, D46, treatment phase 2 (low-dose 4-AP)): 448 g and 490 g (2×) and 440 g and 494 g (2×) and 570 g and 488 g and 552 g and 457 g and 491 g and 386 g and 442 g and 446 g and 379 g
Weight (g) Group 2, D30 ([3]; Group 2, D30, treatment phase 1 (low-dose 4-AP)): 474 g and 380 g (2×) and 414 g and 444 g and 410 g and 480 g (2×) and 540 g and 475 g and 512 g and 434 g and 420 g and 416 g and 431 g
Weight (g) Group 2, D32 ([3]; Group 2, D32, treatment phase 1 (low-dose 4-AP)): 473 g and 369 g and 410 g and 426 g and 406 g and 455 g and 541 g and 467 g and 508 g and 476 g and 424 g and 403 g and 412 g and 374 g and 428 g
Weight (g) Group 2, D58 ([3]; Group 2, D58, treatment phase 3 (high-dose 4-AP)): 530 g and 425 g and 461 g and 477 g and 455 g and 540 g and 635 g and 535 g and 570 g and 546 g and 499 g and 456 g and 470 g and 432 g and 483 g
Weight (g) Group 2, D60 ([3]; Group 2, D60, treatment phase 3 (high-dose 4-AP)): 517 g and 410 g and 444 g (2×) and 460 g and 441 g and 519 g and 614 g and 508 g and 535 g and 530 g and 488 g and 447 g and 417 g and 471 g
Weight (g) Group 3, D44 ([3]; Group 3, D44, treatment phase 2 (high-dose 4-AP)): 460 g and 461 g and 469 g and 451 g and 423 g and 462 g and 463 g (2×) and 532 g and 572 g and 538 g and 442 g and 445 g (2×) and 453 g
Weight (g) Group 3, D46 ([3]; Group 3, D46, treatment phase 2 (high-dose 4-AP)): 440 g and 436 g (2×) and 455 g and 435 g (2×) and 402 g and 442 g and 502 g and 567 g and 497 g and 446 g and 430 g (2×) and 412 g
Weight (g) Group 3, D58 ([3]; Group 3, D58, treatment phase 3 (low-dose 4-AP)): 475 g and 486 g and 485 g and 467 g and 440 g and 472 g and 490 g and 550 g and 625 g and 573 g and 492 g and 462 g and 469 g and 476 g and 461 g
Weight (g) Group 3, D60 ([3]; Group 3, D60, treatment phase 3 (low-dose 4-AP)): 466 g and 479 g and 484 g (2×) and 463 g and 430 g and 465 g and 550 g and 613 g and 549 g and 468 g and 453 g and 456 g and 470 g and 447 g
